The source of these data is patent US6303366A, “Biodegradation of the gasoline oxygenates” (Envirogen, Inc., priority 1999, dated 2001).

Series [1] deals with strain ENV425. Description: Growth studies on MTBE pathway intermediates. It is filed as cell-based, Nocardia.
For series [2], the system named is ENV425. The series is described as follows: Degradation of tetrahydrofuran. It is filed as cell-based, Nocardia. Particulars: propane-grown; OD550 2.0; 40 mg/L; 48 hours; room temperature. Here is the method: (§1) To test the ability of propane oxidizing bacteria to degrade other environmentally-significant ether pollutants, ENV425 and a mixed culture of propane oxidizing bacteria from a laboratory bioreactor were incubated with tetrahydrofuran, and the degradation of tetrahydrofuran was measured after 48 hours. Cells of ENV425 and a mixed bioreactor culture of propane-oxidizing bacteria (termed "TXR") were grown in BSM medium with propane as the sole source of carbon and energy, collected by centrifugation, washed with BSM, and suspended in BSM to an optical density at 550 nm of 2.0. Five ml of the cell suspensions were added to 15 mL serum vials, and the vials were sealed with Teflon-lined septa and crimp tops. Vials containing BSM but no cells served as controls. Tetrahydrofuran was injected through the septa to create a final liquid concentration of 40 mg/L. The vials were then incubated at room temperature for 48 hours and analyzed by gas chromatography of subsamples of the vial headspace gas. Gas chromatography was performed as described for MTBE analysis.

The test system of series [3] is mixed culture of propane-oxidizing bacteria (TXR). The series is described as follows: Degradation of tetrahydrofuran. It is filed as cell-based. Particulars: propane-grown; OD550 2.0; 40 mg/L; 48 hours; room temperature. Here is the method:
as §1

Series [4] relates to M. vaccae JOB5. The series is described as follows: Gas chromatography degradation assay, washed cells. It is filed as cell-based, Mycobacterium vaccae. The following applies: for % Degraded: 30 mg/l, 24 hours, OD550 1.0. Here is the method: (§2) Propane-oxidizing microorganisms were grown as described above on either propane, isopropanol, ethanol or acetone, to a cell density of OD550≥0.5. The cells were then collected by centrifugation, washed with BSM, and suspended to an OD550 of 1.0. […] The vials were sealed with Teflon-lined septa and crimp seals and incubated with shaking (250 rpm) at 30° C. for at least 24 hr. Control samples were prepared by adding 50 μl of 10 mM HgCl2 to replicate vials. HgCl2 killed the microorganisms present in the vials allowing these vials to serve as controls. At pre-determined time points, 50 μl of 10 mM HgCl2 were added to the incubating sample to stop the reaction or a sub-sample of the incubating sample was removed for analysis. Degradation of MTBE, ETBE or tert-butyl alcohol (TBA) was measured by gas chromatography.
(§3) Gas chromatography was performed by first removing cells from the samples by centrifugation of the sample vial or the sub-sample. A pre-sealed 2-ml autosampler vial was partially evacuated by inserting a syringe needle through the septa and removing 500 μl of air. Five hundred μl of the clear supernatant fraction of the cell culture were then injected into the vial. The samples were then analyzed by injecting 1 μl of the sample directly into a Varians Model 3400 gas chromatograph equipped with a 30 m Vocol capillary column (Supelco) and a flame ionization detector. The column, injector, and detector were maintained isocratically at 80° C., 200° C., and 225° C., respectively. Standard curves of each compound were generated with aqueous standards of 10 ppm, 25 ppm, 50 ppm, and 100 ppm.

Series [5] has as its system ENV420. Description: Gas chromatography degradation assay, washed cells. It is filed as cell-based. Particulars: 30 mg/l, 24 hours, OD550 1.0. Here is the method: as §2, §3
For series [6], the system named is ENV425. Description: Gas chromatography degradation assay, washed cells. It is filed as cell-based, Nocardia. Particulars: 30 mg/l, 24 hours, OD550 1.0. Here is the method:
as §2, §3

Series [7] has as its system M. vaccae JOB5. Description: [^14 C]MTBE assay. It is filed as cell-based, Mycobacterium vaccae. Particulars: propane-grown, OD550 1.0, overnight, 0.5 μCi [^14 C]MTBE (2 μM MTBE).
For series [8], the system named is ENV425. Description: [^14 C]MTBE assay. It is filed as cell-based, Nocardia.
Series [9] has as its system TXR mixed culture of naturally-occurring propane-oxidizing bacteria. The series is described as follows: [^14 C]MTBE assay. It is filed as cell-based. The following applies: propane-grown, OD550 1.0, overnight, 0.5 μCi [^14 C]MTBE (2 μM MTBE).

Take `CC(=O)CO` [hydroxyacetone]: in [1], the “growth of strain ENV425 on the substance” value is recorded as “does occur”.
The same measure, in the same setting: under `CC(O)C(=O)O` (stereo not shown) [lactic acid] stands “grows on”.
On to `C1CCOC1` [tetrahydrofuran], for which the tetrahydrofuran degraded in series [2] and in series [3] was 100% in each case.
With `C=C(C)C(=O)O` [methacrylic acid], the “growth of strain ENV425 on the substance” value in [1] is “grows on”.
As to `CCOC(C)(C)C` [ETBE, ethyl-tert-butyl ether], the “% Degraded” value in series [4] (grown on isopropanol) stood at 80%; in series [4] (grown on propane) it was 100%; in series [5] (grown on ethanol) it was 31%; in [5] (grown on propane), 0%; in series [6] (grown on isopropanol) it was 14%; in series [6] (grown on propane) it was 26%.
Regarding `CC(C)O` [2-propanol], the “growth of strain ENV425 on the substance” value in series [1] is reported as “does occur”.
Same read-out and setting: the value for `CC(=O)O` [acetic acid] was “does occur”; that for `CC(O)(CO)C(=O)O` (stereo not shown) [2,3-dihydroxy-2-methyl propionic acid] was “grows on”.
As to `CC(C)(C)O` [TBA, tertiary-butyl alcohol], the “% Degraded” value in [4] (grown on isopropanol) was found to be 11%; in series [4] (grown on propane), 45%; in [5] (grown on ethanol) it was 56%; in series [5] (grown on propane) it was 10%; in series [6] (grown on isopropanol), 0%; in series [6] (grown on propane) it was 23%. For the same compound, in series [4] (propane-grown, within 24 hr), the “degraded % of the added TBA” value came to 100%.
`CC(C)=O` [acetone]: in series [1], the “growth of strain ENV425 on the substance” value was “does occur”.
With `[14CH3]O[14C]([14CH3])([14CH3])[14CH3]` [[^14 C]MTBE], the “Percent of added [^14 C] in particulate fraction” value in [7] and in [9] was 0% throughout. Also, the “Percent of added [^14 C] in CO2 fraction” value in [7] (mean (SD) of three) was 27(2) Percent; in [8] (propane-grown, OD550 5.0, overnight, 0.5 μCi [^14 C]MTBE (2 μM MTBE)), 41%; in [9] (mean (SD) of three), 53(1) Percent. Also, the “Percent of added [^14 C] in liquid fraction” value is reported as 71(2) Percent in [7] (mean (SD) of three) and 46(1.5) Percent in series [9] (mean (SD) of three). The “added [^14 C]MTBE converted to ^14 CO2” value in series [8] (env425) is given as more than 65%.
`CC(C)(O)C(=O)O` [HIBA, 2-hydroxy isobutyric acid]: the “growth of strain ENV425 on the substance” value in series [1] was “does not grow well”.
